Results on 18 compounds are retold here after US20140005163A1 (NOVARTIS AG, priority 2010, published 2014).

SMILES strings stand for the structures. Converted amounts (≈) assume the structure as drawn.

For one data set, the target named is T1, PI3K gamma (Homo sapiens, UniProt P48736).
T1 construct: His tag (C); made in house; host or cells: baculovirus (pVL1393); Tn5 or TiniPro insect cells; construct from Roger Williams lab, MRC LMB
Description: PI3K gamma kinase assay (Kinase-Glo luminescence). It counts as biochemical. In a few lines:
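Luminescent ATP-depletion (Kinase-Glo) assay with 150 nM PI3Kγ, 1 μM ATP and 10 μg/mL phosphatidylinositol in 10 mM Tris-HCl pH 7.5, 3 mM MgCl2, 50 mM NaCl, 0.05% CHAPS, 1 mM DTT; 120 min at room temperature. Eight-point dilutions; IC50 by four-parameter logistic fit.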
In general terms: Kinase-Glo measures the ATP left after a reaction by luminescence.

The next data set has as its target T2, PI3K beta (Homo sapiens, UniProt P42338).
T2 construct: for the full-length p110-b subunit are generated and fused by overlapping PCR; p85(iSH2) fusion partner (see partner chain) (N); His tag (C); made in house; host or cells: baculovirus; Tn5 (Trichoplusia ni) or TiniPro insect cells
The data set is described as follows: PI3K beta kinase assay (Kinase-Glo luminescence). The format is biochemical. The gist of the method:
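Enzyme: BV949 p85(iSH2)-Gly linker-p110β FL-His, 25 nM. Substrate: PI 10 μg/mL. ATP: 1 μM, added to start. Buffer: Tris pH 7.5 10 mM, MgCl2 3 mM, NaCl 50 mM, CHAPS 0.05%, DTT 1 mM. RT, 60 min. Readout: Kinase-Glo. IC50 by 4-parameter fit.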

The target of the next data set is T3, PI3K delta (Homo sapiens, UniProt O00329).
T3 construct: for the full-length p110-d subunit are generated and fused by overlapping PCR; p85(iSH2) fusion partner (see partner chain) (N); His tag (C); made in house; host or cells: baculovirus; Tn5 (Trichoplusia ni) or TiniPro insect cells
T3 sequence (O00329 with tags, fused parts or gaps limits assumed): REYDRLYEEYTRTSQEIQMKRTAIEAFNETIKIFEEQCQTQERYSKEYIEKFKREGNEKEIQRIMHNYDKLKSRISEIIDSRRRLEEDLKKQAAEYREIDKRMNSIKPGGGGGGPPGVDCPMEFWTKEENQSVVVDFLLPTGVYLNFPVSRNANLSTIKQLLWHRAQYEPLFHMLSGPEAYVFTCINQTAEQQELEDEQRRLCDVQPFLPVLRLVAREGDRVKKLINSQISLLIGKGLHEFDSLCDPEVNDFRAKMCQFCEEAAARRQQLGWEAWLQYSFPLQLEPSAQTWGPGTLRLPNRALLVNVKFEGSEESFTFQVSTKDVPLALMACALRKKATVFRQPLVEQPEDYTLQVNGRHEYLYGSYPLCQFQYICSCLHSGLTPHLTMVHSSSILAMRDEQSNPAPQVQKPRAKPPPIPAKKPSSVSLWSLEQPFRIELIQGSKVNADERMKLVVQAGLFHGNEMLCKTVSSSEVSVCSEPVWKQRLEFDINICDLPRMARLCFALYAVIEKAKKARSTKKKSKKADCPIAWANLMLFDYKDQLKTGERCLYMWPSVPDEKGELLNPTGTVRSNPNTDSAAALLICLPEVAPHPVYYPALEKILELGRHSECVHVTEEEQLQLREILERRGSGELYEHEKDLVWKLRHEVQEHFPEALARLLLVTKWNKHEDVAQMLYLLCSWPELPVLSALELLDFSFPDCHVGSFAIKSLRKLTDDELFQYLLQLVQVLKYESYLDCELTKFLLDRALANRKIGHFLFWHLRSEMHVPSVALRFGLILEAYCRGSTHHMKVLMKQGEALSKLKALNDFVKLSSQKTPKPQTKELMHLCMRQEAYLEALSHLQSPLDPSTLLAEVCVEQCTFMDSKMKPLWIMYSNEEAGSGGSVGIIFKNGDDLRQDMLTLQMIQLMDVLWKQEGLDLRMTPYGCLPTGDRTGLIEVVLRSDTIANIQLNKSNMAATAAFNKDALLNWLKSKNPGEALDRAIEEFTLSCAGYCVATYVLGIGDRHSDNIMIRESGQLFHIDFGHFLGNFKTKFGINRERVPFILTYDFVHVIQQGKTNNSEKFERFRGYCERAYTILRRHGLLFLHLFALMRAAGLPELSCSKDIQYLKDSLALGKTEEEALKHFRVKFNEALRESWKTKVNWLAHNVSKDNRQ
Description: PI3K delta kinase assay (Kinase-Glo luminescence). The format is biochemical. In a few lines:
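Construct BV-1060, p85 iSH2–linker–full-length p110δ, His-tagged, at 10 nM, with 1 μM ATP and 10 μg/mL phosphatidylinositol in pH 7.5 Tris, 3 mM MgCl2, 50 mM NaCl, 0.05% CHAPS. Run 60 min at room temperature; remaining ATP read by Kinase-Glo luminescence; IC50 from 4-parameter logistic fit of 8 concentrations.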

Another data set concerns the target T4, PI3K alpha (Homo sapiens, UniProt P42336).
T4 construct: p85(iSH2) fusion partner (see partner chain) (N); His tag (C); made in house; host or cells: baculovirus; Tn5 (Trichoplusia ni) or TiniPro insect cells
Description: PI3K alpha kinase assay (Kinase-Glo luminescence). It counts as biochemical. In a few lines:
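PI3K alpha at 10 nM with 1 μM ATP and 10 μg/mL phosphatidylinositol in 10 mM TRIS pH 7.5, 3 mM MgCl2, 50 mM NaCl, 0.05% CHAPS, 1 mM DTT, 60 min at room temperature. Remaining ATP read by Kinase-Glo luminescence. IC50 by 4-parameter fit over 8 concentrations.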

A further data set in a line: Solubility at pH 6.8. The format is physicochemical. To be noted: pH 6.8, aqueous buffer, thermodynamic from solid; read-out: solubility. In a few lines: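 Solubility was measured at pH 6.8 following the cited Zhou et al. (2007) procedure.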

T2 sequence (P42338 with tags, fused parts or gaps limits assumed): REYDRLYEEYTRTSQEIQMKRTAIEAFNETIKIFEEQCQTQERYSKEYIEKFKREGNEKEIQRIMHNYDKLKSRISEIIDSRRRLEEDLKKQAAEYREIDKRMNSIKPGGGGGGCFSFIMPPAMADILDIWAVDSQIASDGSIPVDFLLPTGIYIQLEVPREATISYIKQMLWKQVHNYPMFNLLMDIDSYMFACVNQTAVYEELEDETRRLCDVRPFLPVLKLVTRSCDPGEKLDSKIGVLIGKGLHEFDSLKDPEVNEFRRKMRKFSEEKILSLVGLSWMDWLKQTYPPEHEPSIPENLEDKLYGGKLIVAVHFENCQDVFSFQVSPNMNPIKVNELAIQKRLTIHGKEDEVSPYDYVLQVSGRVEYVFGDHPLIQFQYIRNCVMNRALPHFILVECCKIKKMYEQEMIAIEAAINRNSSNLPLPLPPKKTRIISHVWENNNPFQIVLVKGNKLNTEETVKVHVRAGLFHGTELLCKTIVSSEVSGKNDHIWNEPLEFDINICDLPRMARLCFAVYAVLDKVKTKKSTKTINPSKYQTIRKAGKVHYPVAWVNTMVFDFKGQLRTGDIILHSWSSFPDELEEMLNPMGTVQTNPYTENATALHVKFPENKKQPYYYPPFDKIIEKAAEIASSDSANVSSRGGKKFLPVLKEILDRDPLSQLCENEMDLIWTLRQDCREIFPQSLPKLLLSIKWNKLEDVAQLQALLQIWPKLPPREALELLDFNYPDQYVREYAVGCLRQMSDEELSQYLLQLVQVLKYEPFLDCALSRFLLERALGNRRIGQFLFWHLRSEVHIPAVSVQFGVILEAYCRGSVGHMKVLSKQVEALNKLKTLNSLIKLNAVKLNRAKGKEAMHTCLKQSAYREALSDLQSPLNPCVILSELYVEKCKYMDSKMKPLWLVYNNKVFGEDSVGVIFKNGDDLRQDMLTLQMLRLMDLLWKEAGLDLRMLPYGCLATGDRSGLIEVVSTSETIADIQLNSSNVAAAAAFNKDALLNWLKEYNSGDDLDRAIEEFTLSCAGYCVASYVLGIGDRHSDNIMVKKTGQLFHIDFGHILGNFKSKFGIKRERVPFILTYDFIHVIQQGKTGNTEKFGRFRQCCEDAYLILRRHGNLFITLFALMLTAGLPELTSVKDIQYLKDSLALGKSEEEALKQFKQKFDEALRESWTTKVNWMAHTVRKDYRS
T4 sequence (P42336 with tags, fused parts or gaps limits assumed): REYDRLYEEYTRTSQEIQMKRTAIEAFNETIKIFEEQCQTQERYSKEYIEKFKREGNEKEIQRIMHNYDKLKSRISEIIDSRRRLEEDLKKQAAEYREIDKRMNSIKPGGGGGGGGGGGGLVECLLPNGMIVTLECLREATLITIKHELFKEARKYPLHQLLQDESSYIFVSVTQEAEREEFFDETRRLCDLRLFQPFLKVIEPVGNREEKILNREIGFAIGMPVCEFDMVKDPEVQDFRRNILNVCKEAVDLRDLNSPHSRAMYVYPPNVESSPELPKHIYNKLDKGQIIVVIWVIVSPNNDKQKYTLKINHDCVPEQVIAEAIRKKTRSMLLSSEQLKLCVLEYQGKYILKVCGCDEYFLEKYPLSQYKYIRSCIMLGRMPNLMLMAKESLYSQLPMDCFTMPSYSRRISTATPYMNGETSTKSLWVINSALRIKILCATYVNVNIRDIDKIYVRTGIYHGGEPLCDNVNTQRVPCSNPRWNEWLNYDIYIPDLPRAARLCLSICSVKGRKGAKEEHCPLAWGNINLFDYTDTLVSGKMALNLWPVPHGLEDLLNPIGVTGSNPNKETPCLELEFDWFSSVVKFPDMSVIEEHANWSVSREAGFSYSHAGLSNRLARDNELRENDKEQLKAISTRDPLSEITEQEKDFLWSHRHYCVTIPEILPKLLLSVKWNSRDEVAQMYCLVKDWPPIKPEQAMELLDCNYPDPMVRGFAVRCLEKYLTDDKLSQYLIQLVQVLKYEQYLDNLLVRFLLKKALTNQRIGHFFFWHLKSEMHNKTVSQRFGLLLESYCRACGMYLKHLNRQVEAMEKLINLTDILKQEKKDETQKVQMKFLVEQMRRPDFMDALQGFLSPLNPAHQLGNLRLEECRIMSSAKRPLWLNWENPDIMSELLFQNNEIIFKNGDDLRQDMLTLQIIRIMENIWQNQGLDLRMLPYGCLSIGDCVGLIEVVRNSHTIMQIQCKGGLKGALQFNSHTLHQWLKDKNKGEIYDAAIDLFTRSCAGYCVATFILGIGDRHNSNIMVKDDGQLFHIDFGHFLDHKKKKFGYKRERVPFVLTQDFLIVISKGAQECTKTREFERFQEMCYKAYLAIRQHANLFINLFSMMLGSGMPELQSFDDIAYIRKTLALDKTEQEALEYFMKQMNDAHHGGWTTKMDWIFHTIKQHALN
T1 sequence (P48736 144-1102 limits assumed): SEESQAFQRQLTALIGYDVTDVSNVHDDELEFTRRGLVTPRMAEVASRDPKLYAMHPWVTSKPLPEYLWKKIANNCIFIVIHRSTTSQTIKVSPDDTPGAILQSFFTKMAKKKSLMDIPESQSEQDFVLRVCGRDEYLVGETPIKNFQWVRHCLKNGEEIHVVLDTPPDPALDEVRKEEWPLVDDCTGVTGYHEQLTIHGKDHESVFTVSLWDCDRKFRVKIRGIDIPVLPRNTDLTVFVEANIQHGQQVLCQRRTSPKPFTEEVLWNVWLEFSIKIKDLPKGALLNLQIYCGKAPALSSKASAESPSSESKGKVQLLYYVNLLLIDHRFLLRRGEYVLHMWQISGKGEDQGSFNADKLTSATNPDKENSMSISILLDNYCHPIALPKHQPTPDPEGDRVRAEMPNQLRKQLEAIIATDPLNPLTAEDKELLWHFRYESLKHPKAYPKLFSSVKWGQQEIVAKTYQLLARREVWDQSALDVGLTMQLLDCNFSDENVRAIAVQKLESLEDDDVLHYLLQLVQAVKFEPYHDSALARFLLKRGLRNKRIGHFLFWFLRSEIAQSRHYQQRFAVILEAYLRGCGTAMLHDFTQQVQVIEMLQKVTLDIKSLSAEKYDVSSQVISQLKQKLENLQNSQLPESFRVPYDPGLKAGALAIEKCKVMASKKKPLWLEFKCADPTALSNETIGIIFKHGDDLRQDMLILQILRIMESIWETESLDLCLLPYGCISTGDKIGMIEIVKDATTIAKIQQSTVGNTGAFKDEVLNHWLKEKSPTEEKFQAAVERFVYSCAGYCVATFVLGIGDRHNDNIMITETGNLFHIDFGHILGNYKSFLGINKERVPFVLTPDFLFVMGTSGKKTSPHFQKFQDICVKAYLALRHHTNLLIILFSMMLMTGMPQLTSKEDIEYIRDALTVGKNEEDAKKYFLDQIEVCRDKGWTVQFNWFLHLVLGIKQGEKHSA

One may read the IC50 as the concentration that inhibits the measured activity by half. As for `Cc1nn(C)cc1-n1c(=O)n(C)c2cnc3ccc(-c4cncc(S(C)(=O)=O)c4)cc3c21` [Example 22, 1-(1,3-Dimethyl-1H-pyrazol-4-yl)-8-(5-methanesulfonyl-pyridin-3-yl)-3-methyl-1,3-dihydro-imidazo[4,5-c]quinolin-2-one], the concentration for half-maximal inhibition (IC50) at PI3K gamma came to 73 nM; at PI3K beta it was 11 nM; on PI3K delta it was 9 nM; on PI3K alpha it was 6 nM.
As to `Cc1nn(C)cc1-n1c(=O)n(C)c2cnc3ccc(-c4cc(O)cc(C(F)(F)F)c4)cc3c21` [Example 34, 1-(1,3-Dimethyl-1H-pyrazol-4-yl)-8-(3-hydroxy-5-trifluoromethyl-phenyl)-3-methyl-1,3-dihydro-imidazo[4,5-c]quinolin-2-one], the IC50 was 82 nM at PI3K gamma, 15 nM at PI3K beta, 7 nM on PI3K delta and 7 nM on PI3K alpha.
For the compound `CNC(=O)c1ccc(-c2ccc3ncc4c(c3c2)n(-c2cn(C)nc2Cl)c(=O)n4C)cc1` [Example 43.2, 4-[1-(3-Chloro-1-methyl-1H-pyrazol-4-yl)-3-methyl-2-oxo-2,3-dihydro-1H-imidazol[4,5-c]quinolin-8-yl]-N-methyl-benzamide], the IC50 stood at 114 nM at PI3K gamma, 56 nM at PI3K beta, 34 nM on PI3K delta and 8 nM on PI3K alpha.
With `COc1ccc(-c2ccc3ncc4c(c3c2)n(-c2cnn(C)c2C)c(=O)n4C)cn1` [Example 2.9, 1-(1,5-Dimethyl-1H-pyrazol-4-yl)-8-(6-methoxy-pyridin-3-yl)-3-methyl-1,3-dihydro-imidazo[4,5-c]quinolin-2-one], the IC50 was 206 nM on PI3K gamma, 166 nM at PI3K beta, 54 nM at PI3K delta and 43 nM at PI3K alpha.
`CCOc1ccc(-c2ccc3ncc4c(c3c2)n(-c2cn(C)nc2Cl)c(=O)n4C)cn1` [Example 3.8, 1-(3-Chloro-1-methyl-1H-pyrazol-4-yl)-8-(6-ethoxy-pyridin-3-yl)-3-methyl-1,3-dihydro-imidazo[4,5-c]quinolin-2-one]: the IC50 on PI3K gamma was determined as 529 nM; on PI3K beta it was 123 nM; on PI3K delta, 34 nM; at PI3K alpha it was 16 nM.
For the compound `Cc1nn(C)cc1-n1c(=O)n(C)c2cnc3ccc(-c4ccc5c(c4)CCN5C)cc3c21` [Example 50, 1-(1,3-Dimethyl-1H-pyrazol-4-yl)-3-methyl-8-(1-methyl-2,3-dihydro-1H-indol-5-yl)-1,3-dihydro-imidazo[4,5-c]quinolin-2-one], the half-maximal inhibitory concentration (IC50) stood at 334 nM at PI3K gamma, 371 nM at PI3K delta and 188 nM at PI3K alpha.
On to `Cc1nn(C)cc1-n1c(=O)n(C)c2cnc3ccc(-c4cnc5[nH]ccc5c4)cc3c21` [Example 36, 1-(1,3-dimethyl-1H-pyrazol-4-yl)-3-methyl-8-(1H-pyrrolo[2,3-b]pyridin-5-yl)-1,3-dihydro-imidazo[4,5-c]quinolin-2-one], for which the IC50 at PI3K gamma amounted to 118 nM; on PI3K beta, 32 nM; at PI3K delta it was 24 nM; at PI3K alpha, 9 nM.
With `CCOc1cccc(-c2ccc3ncc4c(c3c2)n(-c2cn(C)nc2C)c(=O)n4C)c1` [Example 57, 1-(1,3-Dimethyl-1H-pyrazol-4-yl)-8-(3-ethoxy-phenyl)-3-methyl-1,3-dihydro-imidazo[4,5-c]quinolin-2-one], the concentration for half-maximal inhibition (IC50) on PI3K gamma is 197 nM; on PI3K beta, 215 nM; on PI3K delta, 215 nM; on PI3K alpha, 38 nM.
Turning to `Cc1nn(C(C)C)cc1-n1c(=O)n(C)c2cnc3ccc(-c4ccc(C(N)=O)nc4)cc3c21` [Example 112, 5-[1-(1-Isopropyl-3-methyl-1H-pyrazol-4-yl)-3-methyl-2-oxo-2,3-dihydro-1H-imidazo[4,5-c]quinolin-8-yl]-pyridine-2-carboxylic acid amide], the half-inhibitory concentration (IC50) at PI3K gamma turned out to be 471 nM; on PI3K beta it was 391 nM; at PI3K delta it was 209 nM; on PI3K alpha it was 79 nM.
As a reminder, the solubility is the dissolved amount per volume that the medium holds. On to `CCn1cc(-n2c(=O)n(C)c3cnc4ccc(-c5cncc(NC)c5)cc4c32)c(C)n1` [Example 180.1, 1-(1-Ethyl-3-methyl-1H-pyrazol-4-yl)-3-methyl-8-(5-methylamino-pyridin-3-yl)-1,3-dihydro-imidazo[4,5-c]quinolin-2-one], for which the IC50 is 42 nM at PI3K beta, 20 nM at PI3K delta and 41 nM at PI3K alpha. Moreover, the solubility in the data set “Solubility at pH 6.8” worked out at 11 µg/mL (≈ 26.6 µM).
`Cc1c(-n2c(=O)n(C)c3cnc4ccc(-c5ccc(N(C)C)nc5)cc4c32)cnn1C` [Example 4.4, 8-(6-Dimethylamino-pyridin-3-yl)-1-(1,5-dimethyl-1H-pyrazol-4-yl)-3-methyl-1,3-dihydro-imidazo[4,5-c]quinolin-2-one]: the IC50 on PI3K gamma came to 341 nM; on PI3K beta, 733 nM; on PI3K delta, 89 nM; on PI3K alpha, 45 nM.
In the case of `Cc1nn(C)cc1-n1c(=O)n(C)c2cnc3ccc(-c4cncc(C(C)O)c4)cc3c21` (racemic) [Example 217, (rac)-1-(1,3-Dimethyl-1H-pyrazol-4-yl)-8-[5-(1-hydroxy-ethyl)-pyridin-3-yl]-3-methyl-1,3-dihydro-imidazo[4,5-c]quinolin-2-one], the IC50 on PI3K beta was found to be 13 nM; at PI3K delta, 19 nM; on PI3K alpha, 8 nM. For the same compound, the solubility in the data set “Solubility at pH 6.8” worked out at 414 µg/mL (≈ 999 µM).
The corresponding values for `CNc1cc(-c2ccc3ncc4c(c3c2)n(-c2cn(C)nc2Cl)c(=O)n4C)cnc1COC` [Example 160.1, 1-(3-Chloro-1-methyl-1H-pyrazol-4-yl)-8-(6-methoxymethyl-5-methylamino-pyridin-3-yl)-3-methyl-1,3-dihydro-imidazo[4,5-c]quinolin-2-one] are 17 nM, less than 3 nM, 14 nM and 32 µg/mL (≈ 69 µM).
With `Cc1ncc(-c2ccc3ncc4c(c3c2)n(-c2cn(C)nc2C)c(=O)n4C)cc1N(C)S(C)(=O)=O` [Example 75, N-{5-[1-(1,3-Dimethyl-1H-pyrazol-4-yl)-3-methyl-2-oxo-2,3-dihydro-1H-imidazo[4,5-c]quinolin-8-yl]-2-methyl-pyridin-3-yl}-N-methyl-methanesulfonamide], the results for the IC50 at PI3K beta, at PI3K delta and on PI3K alpha were 37 nM, 7 nM and 14 nM, respectively. For the same compound, in the data set “Solubility at pH 6.8”, the solubility amounted to 35 µg/mL (≈ 71.2 µM).
As to `Cc1nn(C)cc1-n1c(=O)n(C)c2cnc3ccc(-c4ccc(OCC5CC5)nc4)cc3c21` [Example 42, 8-(6-Cyclopropylmethoxy-pyridin-3-yl)-1-(1,3-dimethyl-1H-pyrazol-4-yl)-3-methyl-1,3-dihydro-imidazo[4,5-c]quinolin-2-one], the IC50 was found to be 590 nM on PI3K gamma, 441 nM at PI3K delta and 70 nM at PI3K alpha.
As to `Cc1nn(C(C)C)cc1-n1c(=O)n(C)c2cnc3ccc(-c4cnc(N(C)C)nc4)cc3c21` [Example 6.1, 8-(2-Dimethylamino-pyrimidin-5-yl)-1-(1-isopropyl-3-methyl-1H-pyrazol-4-yl)-3-methyl-1,3-dihydro-imidazo[4,5-c]quinolin-2-one], the 50% inhibitory concentration (IC50) was 182 nM on PI3K gamma, 227 nM on PI3K beta, 28 nM on PI3K delta and 29 nM at PI3K alpha.
Take `Cc1nn(C)cc1-n1c(=O)n(C)c2cnc3ccc(-c4cncc(NC(C)C)c4)cc3c21` [Example 177.1, 1-(1,3-Dimethyl-1H-pyrazol-4-yl)-8-(5-isopropylamino-pyridin-3-yl)-3-methyl-1,3-dihydro-imidazo[4,5-c]quinolin-2-one]: the half-maximal inhibitory concentration (IC50) on PI3K beta is 18 nM; at PI3K delta, 12 nM; at PI3K alpha, 14 nM. Besides, in the data set “Solubility at pH 6.8”, the solubility came to 169 µg/mL (≈ 395 µM).
The corresponding values for `CCOCc1ncc(-c2ccc3ncc4c(c3c2)n(-c2cn(C)nc2Cl)c(=O)n4C)cc1OC` [Example 196.1, 1-(3-Chloro-1-methyl-1H-pyrazol-4-yl)-8-(6-ethoxymethyl-5-methoxy-pyridin-3-yl)-3-methyl-1,3-dihydro-imidazo[4,5-c]quinolin-2-one] are 77 nM, 5 nM, 29 nM and 44 µg/mL (≈ 91.9 µM).
